According to paper PMC9137581, “Identification of a Novel Class of Anti-Melanogenic Compounds, (Z)-5-(Substituted benzylidene)-3-phenyl-2-thioxothiazolidin-4-one Derivatives, and Their Reactive Oxygen Species Scavenging Activities” (Antioxidants, 2022):

Columns and labels:
[1] = tested on: intracellular ROS in B16F10 cells; test: Intracellular ROS scavenging activity assay (DCFH-DA, SIN-1); type: cell-based, murine; conditions: ≤ 20 µM, 10 µM SIN-1, B16F10 cells
Procedure: ROS scavenging activity was determined as has previously been described by Ali et al. and Lebel and Bondy. Briefly, DCFH-DA (2′,7′-dichlorodihydrofluorescein-diacetate) (2.5 mM; Molecular Probes, Eugene, OR, USA) mixed with esterase (1.5 units/mL) in a phosphate buffer (50 mM; pH 7.4) was incubated for 30 min at 37 °C and then placed on ice in the dark until it was required. In order to determine their intracellular ROS scavenging activities, B16F10 cells (1 × 10^4/well) were seeded in black 96-well plates and incubated for 24 h. The cells were then co-treated with the analogs and SIN-1 (3-morpholinosydnonimine) (10 µM), as previously described, for 2 h. DCFH-DA (20 µM) was added for 30 min in the dark and the fluorescence intensities of the oxidized DCFH were measured using a microplate reader (Tecan, Männedorf, Switzerland) at excitation and emission wavelengths of 485 and 530 nm, respectively. Trolox was used as the positive control.
We investigated the effects of the analogs on intracellular ROS (reactive oxygen species) because, reportedly, ROS might regulate melanogenesis in melanoma cells. The principle of the intracellular ROS assay that was used is that DCFH-DA (2′,7′-dichlorodihydrofluorescein diacetate) spreads across the cell membrane and is enzymatically hydrolyzed by esterases to DCFH (2′,7′-dichlorodihydrofluorescein), which reacts with ROS in order to generate DCF (2′,7′-dichlorofluorescein), which is fluorescent. Thus, the intracellular ROS scavenging activities of (Z)-BPTT analogs 1–3 and 6 were investigated in vitro using DCFH-DA. SIN-1 (3-morpholinosydnonimine) and trolox were used as a RNS/ROS generator [54] and a positive control, respectively.

mushroom tyrosinase [2] = target: T1, mushroom tyrosinase (Agaricus bisporus, UniProt C7FF04); test: Kinetic studies of mushroom tyrosinase inhibition (L-DOPA; Lineweaver–Burk and Dixon plots); type: biochemical; conditions: for mode of action (type of inhibition): Lineweaver–Burk plots; for Ki: determined using Dixon plots, L-DOPA substrate
T1 construct: purchased Sigma-Aldrich
Procedure: The Michael constants (KM), inhibition constants (Ki), and Lineweaver–Burk and Dixon plots of the analogs were used in order to determine their modes of action. […] The initial rates of dopachrome production in the reaction mixtures were calculated by measuring the increases in absorbance at 492 nm (ΔOD492/min) using a microplate reader (VersaMax™, Molecular Devices, Sunnyvale, CA, USA). The maximal reaction velocity (Vmax) was determined using Lineweaver–Burk plots (plots of the inverse of the reaction rate (1/V) versus the inverse of the substrate concentration (1/[S])) that were obtained using six different L-DOPA concentrations. The mode of action of each analog was determined using the convergence point of the four plot lines.
. Lineweaver–Burk plots were used in order to determine the modes of action of these four analogs (Figure 4). Mushroom tyrosinase inhibition plots were obtained using six different L-DOPA (substrate) concentrations and four different concentrations of each analog. […] On the other hand, the Michaelis–Menten constants (KM) increased upon the increase of the analogs’ concentrations (Table 3). The KM values of the analogs were 1.042, 1.193, 1.433, and 2.159 mM at analog 1 concentrations of 0, 1, 2, and 4 µM; 1.077, 2.117, 2.899, and 4.865 mM at analog 2 concentrations of 0, 2.5, 5, and 10 µM; […]; and 1.030, 1.243, 1.531, and 1.885 mM at analog 6 concentrations of 0, 1, 2, and 4 µM. The mean of the Vmax values that were determined from the Lineweaver–Burk plots was 0.0171 mM/min. In order to determine the inhibition constants (Ki) for the mushroom tyrosinase–analog complexes, the Lineweaver–Burk plots were converted into their corresponding Dixon plots (Figure 5), in which 1/V (where V is the initial reaction velocity) was plotted against the inhibitor concentration [I] at different L-DOPA [S] concentrations.
Target sequence in this assay (C7FF04 1-392): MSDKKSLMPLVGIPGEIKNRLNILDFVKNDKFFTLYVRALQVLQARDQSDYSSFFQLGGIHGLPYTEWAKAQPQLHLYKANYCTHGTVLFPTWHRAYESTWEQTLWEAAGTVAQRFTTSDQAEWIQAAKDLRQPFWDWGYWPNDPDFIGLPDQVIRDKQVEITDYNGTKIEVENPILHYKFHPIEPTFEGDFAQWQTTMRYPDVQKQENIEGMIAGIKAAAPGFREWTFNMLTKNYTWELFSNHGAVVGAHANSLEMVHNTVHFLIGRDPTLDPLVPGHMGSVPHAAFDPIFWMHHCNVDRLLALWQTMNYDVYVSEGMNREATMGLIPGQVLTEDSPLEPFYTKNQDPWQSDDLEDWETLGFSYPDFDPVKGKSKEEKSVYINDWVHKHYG

[3] = DPPH radical scavenging activity assay; conditions: 1 mM, 30 min in the dark
Procedure: The effects of the (Z)-BPTT analogs 1–13 on DPPH radical scavenging activities were investigated as previously described with slight modification. Briefly, 180 μL of 0.2 mM DPPH in methanol was added to 96-well plates and then 20 μL of one of the (Z)-BPTT analogs 1–13 (10 mM in DMSO) or the positive control (10 mM L-ascorbic acid in distilled water) was added and mixed. The 96-well plates were incubated in the dark for 30 min and then the well optical densities were measured at 517 nm using a VersaMax™ microplate reader (Molecular Devices, Sunnyvale, CA, USA). All of these experiments were performed independently in triplicate. The DPPH radical scavenging activities of the analogs were calculated using the following formula:Scavenging activity (%) = (Ac − As) × 100/Ac where Ac is the optical density of the non-treated control and As is the optical density of the tested material.
The DPPH (2,2-diphenyl-1-picrylhydrazyl) radical scavenging abilities of the (Z)-BPTT analogs were investigated using L-ascorbic acid (vitamin C) as a positive control. The final concentrations of the analogs and of the positive control in the test samples and in the DPPH methanol solution were 1 and 0.18 mM, respectively. The scavenging activities of the analogs were assessed by measuring their optical densities at 517 nm after standing the samples in the dark for 30 min.

mushroom tyrosinase [4] = target: T1, mushroom tyrosinase; test: Mushroom tyrosinase inhibition assay (L-tyrosine substrate); type: biochemical; conditions: for IC50: L-tyrosine substrate, means ± SEMs of triplicate determinations; for potency of mushroom tyrosinase inhibition relative to kojic acid: ratio of IC50 values versus kojic acid
Procedure: In order to examine the inhibitory effect of the (Z)-BPTT analogs on tyrosinase activity, commercially available mushroom tyrosinase (Sigma-Aldrich, St. Louis, MO, USA) was used. The mushroom tyrosinase-inhibitory activities of the analogs were determined as described previously with modification. Briefly, 20 µL (20 units) of an aqueous mushroom tyrosinase solution was added to each well of a 96-well microplate containing 170 µL of a substrate mixture consisting of 345 μM of L-tyrosine solution, 17.2 mM phosphate buffer (pH 6.5), and 10 µL of a (Z)-BPTT analog solution at different concentrations or 10 µL of a kojic acid solution (2, 10, or 50 μM). After incubating the assay mixtures for 30 min at 37 °C, the remaining tyrosinase activities were calculated from the amounts of dopachrome that were formed as determined by measuring their absorbance at 492 nm using a microplate reader (VersaMax™, Molecular Devices, Sunnyvale, CA, USA). The curves of the IC50 values that were derived from the X-axis of the inhibitor concentration versus the amount of product that was produced were determined by aligning the dose–response curve with the Y-axis. Inhibition experiments were performed in triplicate using three to six different concentrations of the (Z)-BPTT analogs or kojic acid. Log–linear curves and their equations were determined by using inhibition percentages at three to six analog concentrations. The individual IC50 values were determined by reading the concentrations on the Y-axis at 50% inhibition. The results are the means of three independent experiments.
The tyrosinase-inhibitory activities were screened against mushroom tyrosinase using L-tyrosine as a substrate, as previously described. Kojic acid, a representative tyrosinase inhibitor, was used as a positive control. […]. All 13 of the (Z)-BPTT analogs inhibited tyrosinase activity in a concentration-dependent manner. The IC50 values are shown in Table 2, along with the analog substitutions.
Target sequence in this assay (C7FF04 1-392 limits assumed): as the sequence (C7FF04 1-392) above

mode of action (type of inhibition) (mushroom tyrosinase [2])	Ki (mushroom tyrosinase [2])	IC50 (mushroom tyrosinase [4])	potency of mushroom tyrosinase inhibition relative to kojic acid (mushroom tyrosinase [4])	enhancement of inhibitory activity relative to analog 4 (mushroom tyrosinase [4]; ratio of IC50 values versus analog 4)	SMILES	intracellular ROS scavenging activity [1]	DPPH radical scavenging activity [3]
competitive	3.18 µM	1.38 ± 0.11 µM			O=C1/C(=C/c2ccc(O)c(O)c2)SC(=S)N1c1ccccc1 [Analog 2, (Z)-5-(3,4-Dihydroxybenzylidene)-3-phenyl-2-thioxothiazolidin-4-one]	significantly and concentration-dependently reduced SIN-1-induced increases in the intracellular ROS activity and it did so to a greater extent than trolox	92.2%
competitive	0.708 µM	0.59 ± 0.03 µM	29 fold		O=C1/C(=C/c2ccc(O)cc2O)SC(=S)N1c1ccccc1 [Analog 3, (Z)-5-(2,4-Dihydroxybenzylidene)-3-phenyl-2-thioxothiazolidin-4-one]		57.0%
competitive	4.67 µM	1.45 ± 0.04 µM	12 fold		O=C1/C(=C/c2ccc(O)cc2)SC(=S)N1c1ccccc1 [Analog 1, (Z)-5-(4-Hydroxybenzylidene)-3-phenyl-2-thioxothiazolidin-4-one]	did not show ROS scavenging activity	14.7%
competitive	3.23 µM	1.88 ± 0.7 µM		43 fold	COc1ccc(/C=C2\SC(=S)N(c3ccccc3)C2=O)cc1O [Analog 6, (Z)-5-(3-Hydroxy-4-methoxybenzylidene)-3-phenyl-2-thioxothiazolidin-4-one]	did not show ROS scavenging activity	27.2%
